How the values were obtained:
Nav1.8 sodium channel = Nav1.8 sodium channel (Homo sapiens (Human), UniProt Q9Y5Y9); test: NaV1.8 blocking activity, manual patch clamp; type: cell-based; conditions: CHO cell line stably expressing Nav1.8
Description: The NaV1.8 blocking activity was determined by using a manual patch clamp technique to detect the effect of the subject on the channel currents of stably overexpressed Nav1.8.
CHO cell line stably expressing the Nav1.8 sodium channel was used for the experiments, gene information: sodium channel, voltage-gated, type 8, alpha (SCN10A), cDNA strictly similar to GenBank accession number: NM 006514.
Cells were cultured in HAM'S/F-12 medium containing 10% foetal bovine serum and 10 μg/mL Blasticidin, 200 μg/mL Hygromycin B, and 100 μg/mL Zeocin at 37° C., 5% CO2. For expansion or maintenance cultures, cells were treated with 0.25%-Trypsin-EDTA, washed and centrifuged, and then inoculated in 6-cm cell culture dishes with 2.5×10^5lls per cell culture dish (final volume: 5 mL).
Prior to the patch clamp detection, cells were separated with 0.25%-Trypsin-EDTA and 6.5×10^3 cells were spread onto coverslips and incubated (final volume: 500 μL) in 24-well plates for 18 hours, then the test was performed.
50 mM CsCl, 10 mM NaCl, 10 mM HEPES, 60 mM CsF, 20 mM EGTA, and pH was adjusted to 7.2 with CsOH. • Instrument information is provided in Table 2 below:
Prior to Nav1.8 channel current testing, a blank control solution (DMSO) was diluted into 10 ml of extracellular fluid as the working solution. Positive controls and subjects were first diluted with different doses of DMSO depending on the final concentration before being diluted as working solution using extracellular fluid. 100 nM TTX was added to each working solution to block the TTX-S current. The working solution was sonicated for 20 min before performing the patch clamp test detection.
Patch clamp manipulation: firstly, the capillary glass tube was drawn into a recording electrode using a microelectrode puller, then the electrode filled with intracellular fluid was loaded into the microelectrode holder, and the microelectrode manipulator was manoeuvred under an inverted microscope to immerse the electrode into the extracellular fluid and record the electrode resistance (Rpip). The electrode was then slowly contacted to the cell surface and negative pressure suction was given to form a GQ2 seal. At this time, fast capacitance compensation was performed and negative pressure was continually applied to suction through the cell membrane to form a whole-cell recording pattern. Finally, slow capacitance compensation was performed and experimental parameters such as series resistance (Rs) were recorded. No leakage compensation was given.
Drug administration was initiated when the Nav1.8 current was stabilized for whole-cell recordings, and the next concentration was detected after each drug concentration had acted for approximately 5 min (or until the current was stable). Cell-lined coverslips were placed in the recording bath under an inverted microscope, and the blank control external solution as well as the working solution of the compound to be tested flowed sequentially from low to high concentrations through the recording bath by using gravitational perfusion and thus acted on the cells, and a peristaltic pump was used to exchange fluids during the recording. The current detected by each cell in the compound-free external fluid served as its own control. Each concentration was repeated independently 2-3 times. All electrophysiological experiments were performed at room temperature.
The voltage stimulation scheme for whole-cell patch-clamp recording of Nav1.8 currents was as follows: when a whole-cell seal was formed, the voltage was clamped at −120 mV. The resting state recording of sodium currents was performed by maintaining the voltage for 5s and then depolarizing it to 0 mV, and then administering a depolarizing pulse (TP1) to 0 m V for 50 ms for detecting the resting state sodium currents. For half-inactivated state recording, the voltage was first stepped at different voltages and maintained for 5s and then a depolarizing pulse was given to 0 mV to detect the Vhalf. […]

[1] = Stability of the compound in liver microsomes (human); type: in vitro ADME; conditions: 1 μM compound, 0.5 mg protein/mL; for Human liver microsomes T½ / half-life at 1 μM: 37° C.; for half-life at 1 μM: human, liver microsomes, read-out: Human liver microsomes T½
Description: (§1) 2.1.1. working solution: 5 μL of test or control compound stock solution (10 mM DMSO solution) was diluted with 495 μL of acetonitrile (ACN) to obtain an intermediate stock solution (100 μM, 99% ACN).
(§2) 2.2.2 Preparation procedure: An appropriate amount of NADPH powder was weighed and diluted with 10 mM MgCl2 buffer (working solution concentration: 10 mM; final reaction system concentration: 1 mM).
(§3) 2.3.2 Preparation procedure: The appropriate concentration of liver microsomal working solution was prepared in 100 mM potassium phosphate buffer;
(§4) Acetonitrile (ACN) solution at 4° C. containing 200 ng/mL of Tolbutamide and 200 ng/ml of labetalol as internal standards 2.5. Operation steps:
(§5) 2.5.2. Diluting liver microsomes with 100 mM potassium phosphate buffer to a concentration of 0.56 mg/mL.
(§6) 2.5.3. Transferring 445 μL of liver microsomal working solution (0.56 mg/mL) to pre-heated incubation plates T60 and NCF60, and then pre-heating the incubation plates T60 and NCF60 for 10 minutes at 37° C. with shaking. Transferring 54 μL of liver microsomes to each well of the blank plate, adding 6 μL of NAPDH coenzyme solution to the blank plate, and finally transferring 180 μL of termination solution to the blank plate.
(§7) 2.5.4 Adding 5 μL of compound working solution (100 μM) to the incubation plates T60 and NCF60 containing liver microsomes and mixing three times.
(§8) 2.5.5. Adding 50 μL of buffer to the NCF60 plate and mixing three times, starting the timer and incubating at 37° C. for 60 min with the plate shaking.
(§9) 2.5.6. Adding 180 μL of quenching solution and 6 μL of NAPDH coenzyme working solution sequentially to quenching plate TO, making sure that the plate was cold to prevent volatilization of the incubation solution.
(§10) 2.5.7. For plate T60, mixing well three times and immediately transferring 54 μL of mixing solution (0-min time point) to quenching plate TO, then adding 44 μL of NAPDH coenzyme working solution to incubation plate T60. Starting the timer:
(§11) 2.5.8. At the 5, 15, 30, 45 and 60 minute time points, adding 180 μL of quenching solution to the quenching plate and transferring 60 μL of reaction solution from the T60 plate to the quenching plate at each time point.
(§12) 2.5.9. For NCF60 plates, mixing well and transferring 60 μL of reaction solution from the NCF60 incubating solution to a quenching plate containing 180 μL of quenching solution at 60th minute.
(§13) 2.5.10. All plates were mixed on a shaker for 10 min and then centrifuged at 4000 rpm at 4° C. for 20 min.
(§14) 2.5.11. Transferring 80 μL of supernatant to 240 μL of HPLC water and mixing on a
(§15) 2.6.1. Calculating t1/2 and Clint (mic) values based on first-order elimination kinetics: […]

[2] = Stability of the compound in liver microsomes (mouse); type: in vitro ADME, CD-1 mouse; conditions: 1 μM compound, 0.5 mg protein/mL; for Mouse liver microsomes T½ / half-life at 1 μM: 37° C.; for half-life at 1 μM: CD-1, mouse, liver microsomes, read-out: Mouse liver microsomes T½
Description: as §1, §2, §3, §4, §5, §6, §7, §8, §9, §10, §11, §12, §13, §14, §15

Chain of Nav1.8 sodium channel (Q9Y5Y9 whole entry): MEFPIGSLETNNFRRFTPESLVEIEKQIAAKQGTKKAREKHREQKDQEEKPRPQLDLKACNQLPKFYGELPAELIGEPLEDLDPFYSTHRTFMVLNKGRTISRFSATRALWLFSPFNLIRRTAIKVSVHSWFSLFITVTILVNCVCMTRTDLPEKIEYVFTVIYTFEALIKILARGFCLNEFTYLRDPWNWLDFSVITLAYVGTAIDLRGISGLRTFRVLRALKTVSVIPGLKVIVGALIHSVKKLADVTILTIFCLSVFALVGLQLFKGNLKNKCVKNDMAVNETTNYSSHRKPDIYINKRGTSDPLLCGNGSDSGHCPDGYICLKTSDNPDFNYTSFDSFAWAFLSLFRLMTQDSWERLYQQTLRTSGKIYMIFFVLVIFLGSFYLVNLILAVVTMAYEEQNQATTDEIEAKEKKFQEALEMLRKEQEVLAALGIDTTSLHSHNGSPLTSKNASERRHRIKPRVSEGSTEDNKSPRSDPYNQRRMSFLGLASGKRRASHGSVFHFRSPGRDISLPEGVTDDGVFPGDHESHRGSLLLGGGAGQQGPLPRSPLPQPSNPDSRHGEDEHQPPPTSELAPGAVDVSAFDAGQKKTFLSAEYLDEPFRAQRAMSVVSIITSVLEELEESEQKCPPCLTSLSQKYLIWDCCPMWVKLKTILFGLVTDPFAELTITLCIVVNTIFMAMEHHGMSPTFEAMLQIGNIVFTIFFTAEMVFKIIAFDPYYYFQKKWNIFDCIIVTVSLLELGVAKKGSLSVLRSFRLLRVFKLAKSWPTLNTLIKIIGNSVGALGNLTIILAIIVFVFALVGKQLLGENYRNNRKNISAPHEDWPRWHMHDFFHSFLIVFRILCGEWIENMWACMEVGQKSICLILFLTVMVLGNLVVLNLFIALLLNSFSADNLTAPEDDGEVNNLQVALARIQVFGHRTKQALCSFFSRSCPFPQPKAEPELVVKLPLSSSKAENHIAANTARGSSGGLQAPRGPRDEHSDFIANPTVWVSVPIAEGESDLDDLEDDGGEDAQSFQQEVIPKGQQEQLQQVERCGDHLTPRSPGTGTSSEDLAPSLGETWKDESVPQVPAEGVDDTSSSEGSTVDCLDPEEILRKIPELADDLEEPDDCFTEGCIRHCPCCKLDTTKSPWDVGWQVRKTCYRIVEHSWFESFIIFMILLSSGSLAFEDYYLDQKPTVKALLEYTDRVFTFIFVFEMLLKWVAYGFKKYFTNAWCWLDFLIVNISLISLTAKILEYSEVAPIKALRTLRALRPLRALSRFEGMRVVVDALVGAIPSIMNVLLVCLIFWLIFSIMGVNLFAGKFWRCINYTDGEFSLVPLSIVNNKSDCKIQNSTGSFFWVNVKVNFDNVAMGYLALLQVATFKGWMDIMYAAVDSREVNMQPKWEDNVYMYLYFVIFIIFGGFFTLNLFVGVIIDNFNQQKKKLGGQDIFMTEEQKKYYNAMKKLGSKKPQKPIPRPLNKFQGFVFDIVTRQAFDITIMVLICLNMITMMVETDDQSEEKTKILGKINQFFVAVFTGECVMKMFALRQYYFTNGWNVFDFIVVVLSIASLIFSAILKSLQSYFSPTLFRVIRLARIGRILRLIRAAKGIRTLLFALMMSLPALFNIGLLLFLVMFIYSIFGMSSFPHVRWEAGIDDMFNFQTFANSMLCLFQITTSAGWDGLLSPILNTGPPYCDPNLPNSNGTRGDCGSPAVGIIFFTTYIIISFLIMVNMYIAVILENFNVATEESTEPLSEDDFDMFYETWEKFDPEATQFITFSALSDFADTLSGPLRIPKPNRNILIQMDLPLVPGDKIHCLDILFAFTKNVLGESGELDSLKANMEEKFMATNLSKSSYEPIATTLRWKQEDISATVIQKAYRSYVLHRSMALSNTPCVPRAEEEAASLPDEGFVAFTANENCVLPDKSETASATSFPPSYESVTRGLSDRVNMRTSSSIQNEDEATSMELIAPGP

Molecule	Blocking rate (%) @3 nM (Nav1.8 sodium channel) [%]	Blocking rate(%) @10 nM (Nav1.8 sodium channel) [%]	IC50 (Nav1.8 sodium channel) [nM]	Human liver microsomes T½ [1] [h]	Human liver microsomes Residual (T = 60 min) [1] [%]	Mouse liver microsomes T½ [2] [h]	Mouse liver microsomes Residual (T = 60 min) [2] [%]	half-life at 1 μM [1] [h]	half-life at 1 μM [2] [h]
4-((2R,3S,4S,5R)-3-(3,4-difluoro-2-(methoxy-d3)phenyl)-4,5-dimethyl-5-(trifluoromethyl) pyrrolidine-2-carboxamido)pyridinamide [Compound 11]	90.26	97.84	0.73	1.59	60.1	1.24	52.9	–	–
COc1c([C@H]2[C@H](C(=O)Nc3ccc[n+]([O-])c3)N[C@@](C)(C(F)(F)F)[C@H]2C)ccc(F)c1F [Compound 7, 3-((2R,3S,4S,5R)-3-(3,4-difluoro-2-methoxyphenyl)-4,5-dimethyl-5-(trifluoromethyl)pyrrolidine-2-carboxamido)pyridine 1-oxide]	67.34	91.89	–	–	74.8	–	75.4	> 2.42	> 2.42
COc1c([C@H]2[C@H](C(=O)Nc3cccc(S(N)(=O)=O)c3)N[C@@](C)(C(F)(F)F)[C@H]2C)ccc(F)c1F [Compound 8, (2R,3S,4S,5R)-3-(3,4-difluoro-2-methoxyphenyl)-4,5-dimethyl-aza-(3-aminosulfonylphenyl)-5-(trifluoromethyl) pyrrolidine-2-carboxamide]	93.13	100.00	–	>2.42	80.3	1.51	62.9	–	–
COc1c([C@H]2[C@H](C(=O)Nc3ccnc(C(N)=O)c3)O[C@@](C)(C(F)(F)F)[C@H]2C)ccc(F)c1F [VX-548, reference compound]	–	–	–	–	70.9	–	56.3	2.2	1.2

Source: US20250296922A1, “POLYSUBSTITUTED PYRROLIDINE DERIVATIVE, PREPARATION METHOD THEREFOR AND USE THEREOF” (SHANGHAI WENNAI THERAPEUTICS CO LTD, priority 2023, published 2025)
